Literature values as cited in US20230270635A1, “METHODS AND COMPOSITIONS FOR COSMETIC APPLICATIONS” (GLO Pharma, Inc., priority 2021, published 2023).

Details: non-ionic surfactants with HLB of 10 or less, Table 1

Row | HLB | Compound
1 | HLB = 5.3 | CCCCCCCCCCCCCCCCOCCOCCO [Ceteth-2, Diethylene glycol hexadecyl ether]
2 | HLB = 4.9 | CCCCCCCCCCCCCCCCCCOCCOCCO [Steareth-2, 2-(2-octadecoxyethoxy)ethanol]
3 | HLB = 7.2 | PEG-8 dioleate
4 | HLB = 4.9 | Polyoxyethylene (2) Oleyl Ether [Oleth-2]
5 | HLB = 6 | Polyoxyethylene (4) dilaurate [PEG-4 dilaurate]
6 | HLB = 9 | Polyoxyethylene (5) Oleyl Ether [Oleth-5]
7 | HLB = 10 | Polyoxyethylene (8) dilaurate [PEG-8 dilaurate]
8 | HLB = 6.7 | Sorbitan monopalmitate
9 | HLB = 3.7 | Sorbitan sesquioleate
10 | HLB = 1.8 | Sorbitan trioleate

More lines, now with the values behind:

Row | Compound | HLB
11 | CCCCCCCC(=O)OCC(O)CO (stereo not shown) [Glyceryl caprylate] | HLB = 5-6
12 | CCCCCCCCCCCC(=O)OCC(O)CO (stereo not shown) [Glyceryl laurate] | HLB = 5.2
13 | CCCCCCCCCCCCCCCCCC(=O)OCC(O)CO (stereo not shown) [Glyceryl stearate] | HLB = 3.8
14 | CCCCCCCCCCCCCCCCCC(=O)OCCOC(=O)CCCCCCCCCCCCCCCCC [Glycol distearate] | HLB = 1
15 | CCCCCCCCCCCCCCCCCC(=O)OCCO [Glycol stearate] | HLB = 2.9
16 | Glyceryl stearate SE | HLB = 5.8
17 | PEG-8 distearate | HLB = 8
18 | PEG-30 dipolyhydroxy-stearate | HLB = 5.5
19 | Polyoxyethylene (3) Oleyl Ether [Oleth-3] | HLB = 6.6
20 | Polysorbate 61 | HLB = 9.6
21 | Propylene glycol monolaurate | HLB=3
22 | Sorbitan Isostearate | HLB = 4.7
23 | Sorbitan monolaurate | HLB = 8.6
24 | Sorbitan monooleate | HLB = 4.3
25 | Sorbitan monostearate | HLB = 4.7
